Data: the NIST ThermoML archive (doi:10.1016/j.jct.2006.06.008)
Numbers after ± are expanded uncertainties.

Key:
[1] = 101 kPa, Liquid
[2] = xn = mol fraction of the nth substance listed; conditions: 101 kPa, Liquid

CCCO [propan-1-ol]
[1]
Conditions | mass density [kg/m3] | speed of sound [m/s] | viscosity [mPa·s]
293.15 K | 803.59 ± 0.56 | 1223 ± 2 | 2.159 ± 0.051
298.15 K | 799.58 ± 0.57 | 1206 ± 2 | 1.915 ± 0.046
303.15 K | 795.55 ± 0.57 | 1189 ± 2 | 1.713 ± 0.042

CCCCO [butan-1-ol]
[1]
Conditions | mass density [kg/m3] | speed of sound [m/s] | viscosity [mPa·s]
293.15 K | 809.5 ± 0.43 | 1257 ± 2 | 2.941 ± 0.068
298.15 K | 805.75 ± 0.43 | 1240 ± 2 | 2.571 ± 0.06
303.15 K | 801.8 ± 0.44 | 1224 ± 2 | 2.255 ± 0.053

C1CCCC1 [cyclopentane]
[1]
Conditions | mass density [kg/m3] | speed of sound [m/s] | viscosity [mPa·s]
293.15 K | 744.52 ± 0.63 | 1232 ± 2 | 0.439 ± 0.013
298.15 K | 739.55 ± 0.64 | 1206 ± 2 | 0.416 ± 0.012
303.15 K | 734.54 ± 0.65 | 1180 ± 2 | 0.394 ± 0.012

C1CCCC1 [cyclopentane] + CCCCO
[2]
Conditions | mass density, 293.15 K [kg/m3] | mass density, 298.15 K [kg/m3] | mass density, 303.15 K [kg/m3] | speed of sound, 293.15 K [m/s] | speed of sound, 298.15 K [m/s] | speed of sound, 303.15 K [m/s] | viscosity, 293.15 K [mPa·s] | viscosity, 298.15 K [mPa·s] | viscosity, 303.15 K [mPa·s]
x1 = 0.0446 | – | 802.7 ± 0.44 | 798.9 ± 0.45 | – | 1236 ± 2 | 1218 ± 2 | – | 2.388 ± 0.056 | 2.108 ± 0.05
x1 = 0.046 | 806.62 ± 0.44 | – | – | 1252 ± 2 | – | – | 2.714 ± 0.063 | – | –
x1 = 0.0914 | 803.7 ± 0.44 | – | – | 1248 ± 2 | – | – | 2.541 ± 0.059 | – | –
x1 = 0.0995 | – | 798.99 ± 0.45 | 795.01 ± 0.46 | – | 1229 ± 2 | 1211 ± 2 | – | 2.168 ± 0.051 | 1.92 ± 0.045
x1 = 0.1924 | 796.71 ± 0.46 | 792.62 ± 0.47 | 788.49 ± 0.47 | 1239 ± 2 | 1220 ± 2 | 1201 ± 2 | 2.095 ± 0.049 | 1.855 ± 0.044 | 1.651 ± 0.039
x1 = 0.294 | 789.84 ± 0.48 | – | – | 1230 ± 2 | – | – | 1.683 ± 0.04 | – | –
x1 = 0.312 | – | 784.43 ± 0.49 | 780.13 ± 0.49 | – | 1209 ± 2 | 1189 ± 2 | – | 1.499 ± 0.036 | 1.349 ± 0.033
x1 = 0.3875 | – | 779.26 ± 0.5 | 774.85 ± 0.51 | – | 1203 ± 2 | 1182 ± 2 | – | 1.233 ± 0.03 | 1.108 ± 0.027
x1 = 0.398 | 782.75 ± 0.5 | – | – | 1223 ± 2 | – | – | 1.358 ± 0.033 | – | –
x1 = 0.5104 | – | 770.8 ± 0.53 | 766.2 ± 0.54 | – | 1194 ± 2 | 1172 ± 2 | – | 0.945 ± 0.024 | 0.865 ± 0.022
x1 = 0.5211 | 774.4 ± 0.52 | – | – | 1215 ± 2 | – | – | 1.014 ± 0.026 | – | –
x1 = 0.6157 | – | 763.63 ± 0.55 | 758.89 ± 0.56 | – | 1189 ± 2 | 1166 ± 2 | – | 0.748 ± 0.02 | 0.689 ± 0.018
x1 = 0.6208 | 767.72 ± 0.55 | – | – | 1211 ± 2 | – | – | 0.807 ± 0.021 | – | –
x1 = 0.7182 | 761.29 ± 0.57 | – | – | 1209 ± 2 | – | – | 0.654 ± 0.018 | – | –
x1 = 0.7372 | – | 755.6 ± 0.58 | 750.73 ± 0.59 | – | 1186 ± 2 | 1162 ± 2 | – | 0.588 ± 0.016 | 0.547 ± 0.015
x1 = 0.8124 | 755.51 ± 0.59 | – | – | 1210 ± 2 | – | – | 0.555 ± 0.015 | – | –
x1 = 0.8361 | – | 749.32 ± 0.6 | 744.36 ± 0.61 | – | 1187 ± 2 | 1163 ± 2 | – | 0.498 ± 0.014 | 0.472 ± 0.014
x1 = 0.9032 | – | 745.24 ± 0.62 | 740.23 ± 0.62 | – | 1191 ± 2 | 1166 ± 2 | – | 0.457 ± 0.013 | 0.431 ± 0.013
x1 = 0.9141 | 749.28 ± 0.61 | – | – | 1216 ± 2 | – | – | 0.48 ± 0.014 | – | –
x1 = 0.9502 | – | 742.52 ± 0.63 | 737.48 ± 0.64 | – | 1195 ± 2 | 1170 ± 2 | – | 0.432 ± 0.013 | 0.409 ± 0.012
x1 = 0.9551 | 746.78 ± 0.62 | – | – | 1220 ± 2 | – | – | 0.456 ± 0.013 | – | –
x1 = 1 | 744.52 ± 0.63 | 739.55 ± 0.64 | 734.54 ± 0.65 | 1232 ± 2 | 1206 ± 2 | 1180 ± 2 | 0.439 ± 0.013 | 0.416 ± 0.012 | 0.394 ± 0.012

C1CCCCC1 [cyclohexane]
[1]
Conditions | mass density [kg/m3] | speed of sound [m/s] | viscosity [mPa·s]
293.15 K | 778.62 ± 0.48 | 1279 ± 3 | 0.968 ± 0.024
298.15 K | 773.92 ± 0.48 | 1254 ± 3 | 0.887 ± 0.022
303.15 K | 769.19 ± 0.49 | 1230 ± 3 | 0.816 ± 0.021

CCO [ethanol] + C1CCCCC1
[2], x2 = 0
Conditions | mass density [kg/m3] | speed of sound [m/s] | viscosity [mPa·s]
293.15 K | 789.75 ± 0.46 | 1162 ± 3 | 1.187 ± 0.029
298.15 K | 785.46 ± 0.47 | 1145 ± 2 | 1.082 ± 0.027
303.15 K | 781.15 ± 0.47 | 1128 ± 2 | 0.987 ± 0.025

CCCO [propan-1-ol] + C1CCCCC1
[2], x2 = 0
Conditions | mass density [kg/m3] | speed of sound [m/s] | viscosity [mPa·s]
293.15 K | 803.59 ± 0.56 | 1223 ± 2 | 2.159 ± 0.051
298.15 K | 799.58 ± 0.57 | 1206 ± 2 | 1.915 ± 0.046
303.15 K | 795.55 ± 0.57 | 1189 ± 2 | 1.713 ± 0.042

CCO [ethanol]
[1]
Conditions | mass density [kg/m3] | speed of sound [m/s] | viscosity [mPa·s]
293.15 K | 789.75 ± 0.46 | 1162 ± 3 | 1.187 ± 0.029
298.15 K | 785.46 ± 0.47 | 1145 ± 2 | 1.082 ± 0.027
303.15 K | 781.15 ± 0.47 | 1128 ± 2 | 0.987 ± 0.025

C1CCCC1 [cyclopentane] + CCO
[2]
Conditions | mass density, 293.15 K [kg/m3] | mass density, 298.15 K [kg/m3] | mass density, 303.15 K [kg/m3] | speed of sound, 293.15 K [m/s] | speed of sound, 298.15 K [m/s] | speed of sound, 303.15 K [m/s] | viscosity, 293.15 K [mPa·s] | viscosity, 298.15 K [mPa·s] | viscosity, 303.15 K [mPa·s]
x1 = 0.0488 | 784.97 ± 0.47 | 780.62 ± 0.48 | 776.23 ± 0.48 | 1157 ± 2 | 1139 ± 2 | 1122 ± 2 | 1.148 ± 0.028 | 1.047 ± 0.026 | 0.956 ± 0.024
x1 = 0.1011 | 780.67 ± 0.48 | 776.25 ± 0.49 | 771.78 ± 0.49 | 1155 ± 2 | 1137 ± 2 | 1118 ± 2 | 1.07 ± 0.027 | 0.977 ± 0.024 | 0.896 ± 0.023
x1 = 0.1932 | 774.13 ± 0.49 | 769.58 ± 0.5 | 764.99 ± 0.51 | 1154 ± 2 | 1135 ± 2 | 1116 ± 2 | 0.955 ± 0.024 | 0.875 ± 0.022 | 0.806 ± 0.021
x1 = 0.2926 | 768.22 ± 0.51 | 763.55 ± 0.52 | 758.83 ± 0.52 | 1157 ± 2 | 1136 ± 2 | 1116 ± 2 | 0.822 ± 0.021 | 0.756 ± 0.02 | 0.696 ± 0.018
x1 = 0.3897 | 763.12 ± 0.53 | 758.34 ± 0.53 | 753.5 ± 0.54 | 1162 ± 2 | 1140 ± 2 | 1118 ± 2 | 0.735 ± 0.019 | 0.679 ± 0.018 | 0.628 ± 0.017
x1 = 0.489 | 758.81 ± 0.54 | 753.94 ± 0.55 | 749.01 ± 0.56 | 1168 ± 2 | 1146 ± 2 | 1123 ± 2 | 0.659 ± 0.018 | 0.609 ± 0.016 | 0.564 ± 0.015
x1 = 0.5973 | 754.7 ± 0.56 | 749.75 ± 0.57 | 744.74 ± 0.58 | 1177 ± 2 | 1153 ± 2 | 1130 ± 2 | 0.582 ± 0.016 | 0.54 ± 0.015 | 0.502 ± 0.014
x1 = 0.7012 | 751.29 ± 0.58 | 746.28 ± 0.59 | 741.2 ± 0.59 | 1186 ± 2 | 1162 ± 2 | 1137 ± 2 | 0.521 ± 0.015 | 0.487 ± 0.014 | 0.456 ± 0.013
x1 = 0.7992 | 748.53 ± 0.6 | 743.48 ± 0.6 | 738.38 ± 0.61 | 1196 ± 2 | 1171 ± 2 | 1146 ± 2 | 0.475 ± 0.014 | 0.446 ± 0.013 | 0.42 ± 0.012
x1 = 0.8886 | 746.41 ± 0.61 | 741.36 ± 0.62 | 736.25 ± 0.63 | 1208 ± 2 | 1182 ± 2 | 1156 ± 2 | 0.448 ± 0.013 | 0.423 ± 0.012 | 0.4 ± 0.012
x1 = 0.9495 | 745.36 ± 0.62 | 740.33 ± 0.63 | 735.23 ± 0.64 | 1217 ± 2 | 1192 ± 2 | 1166 ± 2 | 0.44 ± 0.013 | 0.417 ± 0.012 | 0.394 ± 0.012
x1 = 1 | 744.52 ± 0.63 | 739.55 ± 0.64 | 734.54 ± 0.65 | 1232 ± 2 | 1206 ± 2 | 1180 ± 2 | 0.439 ± 0.013 | 0.416 ± 0.012 | 0.394 ± 0.012

CCCCO [butan-1-ol] + C1CCCCC1
[2], x2 = 0
Conditions | mass density [kg/m3] | speed of sound [m/s] | viscosity [mPa·s]
293.15 K | 809.5 ± 0.43 | 1257 ± 2 | 2.941 ± 0.068
298.15 K | 805.75 ± 0.43 | 1240 ± 2 | 2.571 ± 0.06
303.15 K | 801.8 ± 0.44 | 1224 ± 2 | 2.255 ± 0.053

CCCCO [butan-1-ol] + C1CCCC1
[2], x2 = 0
Conditions | mass density [kg/m3] | speed of sound [m/s] | viscosity [mPa·s]
293.15 K | 809.5 ± 0.43 | 1257 ± 2 | 2.941 ± 0.068
298.15 K | 805.75 ± 0.43 | 1240 ± 2 | 2.571 ± 0.06
303.15 K | 801.8 ± 0.44 | 1224 ± 2 | 2.255 ± 0.053

CCCO [propan-1-ol] + C1CCCC1
[2], x2 = 0
Conditions | mass density [kg/m3] | speed of sound [m/s] | viscosity [mPa·s]
293.15 K | 803.59 ± 0.56 | 1223 ± 2 | 2.159 ± 0.051
298.15 K | 799.58 ± 0.57 | 1206 ± 2 | 1.915 ± 0.046
303.15 K | 795.55 ± 0.57 | 1189 ± 2 | 1.713 ± 0.042

CCO [ethanol] + C1CCCC1
[2], x2 = 0
Conditions | mass density [kg/m3] | speed of sound [m/s] | viscosity [mPa·s]
293.15 K | 789.75 ± 0.46 | 1162 ± 2 | 1.187 ± 0.029
298.15 K | 785.46 ± 0.47 | 1145 ± 2 | 1.082 ± 0.027
303.15 K | 781.15 ± 0.47 | 1128 ± 2 | 0.987 ± 0.025
